Patent US20100305124A1, “Acylated Aminopyridine and Aminopyridazine Insecticides” (BAYER CROPSCIENCE AG, priority 2009, published 2010)

Key:
[1] = system: green peach aphid (Myzus persicae); assay: Myzus test (MYZUPE spray treatment), Chinese cabbage leaf discs; format: in vivo; conditions: foliar, spray on Chinese cabbage discs, read-out: effect in % (aphids killed); for pest or weed control at 500 g/ha: application rate of 500 g/ha
Description: Myzus Test (MYZUPE Spray Treatment)
Solvents: 78 parts by weight of acetone • • 1.5 parts by weight of dimethylformamide Emulsifier: 0.5 part by weight of alkylaryl polyglycol ether
An appropriate preparation of active ingredient is prepared by mixing 1 part by weight of active ingredient with the stated amounts of solvents and emulsifier and diluting the concentrate with emulsifier-containing water to the desired concentration.
Discs of Chinese cabbage (Brassica pekinensis) infested with all stages of the green peach aphid (Myzus persicae) are sprayed with a preparation of active ingredient at the desired concentration.
After the desired time, the effect in % is determined. Here, 100% means that all of the aphids have been killed; 0% means that no aphids have been killed.

[2] = system: common spider mite (Tetranychus urticae); assay: Tetranychus test (TETRUR), sprayed French bean plants; format: in vivo; conditions: application rate of 500 ppm; spray on French bean plants
Description: Tetranychus Test (TETRUR) Solvent: 3 parts by weight of dimethylformamide Emulsifier: 1 part by weight of polyoxyethylenealkyl phenyl ether An appropriate preparation of active ingredient is prepared by mixing 1 part by weight of active ingredient with the stated amount of solvent and emulsifier and diluting the concentrate with water to the desired concentration. French bean (Phaseolus vulgaris) plants are infested with a mixed population of the common spider mite (Tetranychus urticae) and sprayed with the preparation of active ingredient at the desired concentration. After the desired time, the effect in % is determined: here, 100% means that all of the spider mites have been killed. Conversely, 0% means that no spider mites have been killed.

Structure (SMILES) | pest or weed control at 500 g/ha [1] [%] | further results
COc1ccc(C(=O)N(C)c2cccnc2)cc1OC [I-260] | ≥ 80 | –
Cc1ncccc1-n1ncc(C(=O)Nc2cccnc2)c1C [I-2] | – | pest or weed control at 20 g/ha ([1]; application rate of 20 g/ha): ≥ 80%
CN(C(=O)c1cnn(-c2ccccc2Cl)c1C(F)(F)F)c1cccnc1 [I-271] | ≥ 80 | –
CC(C)=CC(=O)Nc1cc(C(=O)N(C)c2cccnc2)ccc1C [I-318] | ≥ 80 | –
COc1ccc(C(=O)Nc2cccnc2)cc1OC [I-263] | ≥ 80 | –
CC(C)C(=O)Nc1cc(C(=O)N(C)c2cccnc2)ccc1F [I-298] | ≥ 80 | –
CC(C)C(=O)Nc1cccc(C(=O)Nc2cccnc2)c1 [I-286] | ≥ 80 | –
CN(C(=O)c1ccc(Oc2ccc(C(C)(C)C)cc2)nc1)c1cccnc1 [I-127] | – | effect in % (spider mites killed) [2]: ≥ 80%
